Measured values taken from EP1568690A1, “The use of carbocyclic and heterocyclic substituted semicarbazones and thiosemicarbazones as sodium channel blockers” (Euro-Celtique S.A., priority 1997, dated 1998).
Read-outs that look alike come from different tables or passages of the source.

Assays:
[1] = test system: voltage-sensitive Na^+ channels; test: Electrophysiological assay: whole-cell patch-clamp of Na^+ currents in acutely dissociated hippocampal neurons; format: cell-based, rat
Description: Cell preparation: Acute cultures of rat hippocampal neurons were prepared daily using a modification of procedures described previously (Kuo and Bean, Mol. Pharm. 46:716-725 (1994)). Briefly, hippocampi were isolated from 3-11 day old rat pup brains (Sprague-Dawley; Charles River) and were sectioned, by hand, into 0.5 - 1 mm thick transverse slices (Whittemore and Koerner, Eur. J. Pharm. 192:435-438 (1991)). Slices were incubated for at least 30 min at room temperature (20 - 24 °C) in an oxygenated medium (124 mM NaCl, 3.3 mM KCl, 2.4 mM MgSO4, 2.5 mM CaCl2, 1.2 mM KH2PO4, 26 mM NaHCO3, pH = 7.4) continuously bubbled with 5% CO2 / 95 % O2. […]
Patch-clamp recordings of voltage-sensitive Na^+ currents: Whole-cell voltage-clamp recordings were made using conventional patch-clamp technique (Hamill et al., Pfluegers Arch. 391:85-100 (1981)) with an Axopatch 200A amplifier (Axon Instruments, Foster City, CA). […] Currents were recorded at room temperature (22-25°C), filtered at 5 kHz with 4-pole Bessel filter, digitized at 20-50-µs intervals, and stored using Digidata 1200 analog/digital interface with Pclamp6/Clampex software (Axon Instruments). […] The inhibitory potency of drugs was assessed by measuring reductions in the peak amplitude of Na^+ currents induced by increasing concentrations of compounds tested. […]

[2] = test system: Na^+ channel Site 1; format: binding; conditions: [^3H] saxitoxin, rat forebrain membranes
[3] = test system: Na^+ channel Site 2; format: binding; conditions: [^3H] batrachotoxin, rat forebrain membranes
[4] = test system: formalin test in mice; test: Formalin test (antinociceptive activity, time licking/biting injected paw); format: in vivo; conditions: Mus musculus
Description: Analgesic activity of 4-(4-fluorophenoxy)benzaldehyde semicarbazone was assessed in the formalin test. The method of Hunskaar, et al., J. Neurosci. Method 14:69-76 (1985), was used with some modifications as described in the following.
Mice were placed in Plexiglas jars for at least 1 h to accommodate to experimental conditions. Following the accommodation period, mice were weighed and injected with 4-(4-Fluorophenoxy)benzaldehyde semicarbazone by i.p. or p.o. administration. Control mice were injected with saline (10 ml/kg). Fifteen min (i.p.) or 30 min (p.o.) following 4-(4-fluorophenoxy)benzaldehyde semicarbazone administration mice were injected with formalin ([…] of 5% formaldehyde solution in saline) into the dorsal surface of the right hand paw. Mice were immediately transferred to the Plexiglas jars and the amount of time that each mouse spent licking and/or biting the injected paw was recorded for every 5-min period over the 1 h observation period. The data presented here are at 0-5 min (early phase) and from 5-60 min (late phase) following formalin injections. The late phase of the formalin test is the average of eleven 5-min periods.
The compound has a potency of ED50 about 5-10 mg/kg by both routes of administration.

[5] = test system: maximal electroshock-induced seizures (MES); test: Maximal electroshock-induced seizure (MES) test; format: in vivo; conditions: mice; for ED50: Mus musculus, po, 0.5 h; for MES (ED50 mg/kg): 30 min
Description: Mice were restrained by gripping the loose skin on their dorsal surface and saline-coated corneal electrodes were held lightly against the two cornea. […] A tonic seizure was defined as a hindlimb extension in excess of 90 degrees from plane of the body.
4-(3,4-Methylenedioxyphenoxy)benzaldehyde semicarbazone was administered orally to mice 30 min before the test procedure. […]

[6] = determined as described in example 38, read-out: MES (ED50 mg/kg)
[7] = determined as described in example 38

Compound: NC(=O)NN=Cc1ccc(Oc2ccc(F)cc2)cc1 [4-(4-fluorophenoxy)benzaldehyde semicarbazone]
- effect on Na^+ currents ([1]; concentrations between 0.1 - 10 µM, holding membrane voltage of -100 mV): very little effect
- Kd ([1]; for inactivated Na^+ channels, read-out: apparent antagonist dissociation constant (Kd)): ~600 nM
- IC50 [2]: > 100 µM
- IC50 [3]: 22 µM
- ED50 ([4]; ip, 0.25 h, i.p., formalin 15 min after administration): 5 to 10 mg/kg
- ED50 ([4]; po, 0.5 h, p.o., formalin 30 min after administration): 5 to 10 mg/kg
- ED50 [5, 6]: 1.6 mg/kg

Compound: CN(N=Cc1ccc(Oc2ccc(F)cc2)c(F)c1)C(N)=O [4-(4-Fluorophenoxy)-3-fluorobenzaldehyde 2'-methylsemicarbazone]
- ED50 [5, 6]: 0.9 mg/kg

Compound: CN(NCc1ccc(Oc2ccc(F)cc2)cc1)C(N)=O [2'-methyl-4-(4-flourophenoxy)phenylmethylsemicarbazide]
- ED50 [5, 6]: 3.2 mg/kg

Compound: NC(=O)NN=Cc1ccc(Oc2ccc3c(c2)OCO3)cc1 [4-(3,4-methylenedioxyphenoxy)benzaldehyde semicarbazone]
- ED50 ([5]; read-out: ED50 (the dose provided protection of 50% of animals), administered orally 30 min before the test): 5.3 mg/kg
- ED50 [5, 6]: 3.4 mg/kg

Compound: NC(=O)NNCc1ccc(Oc2ccc(F)cc2)cc1 [4-(4-fluorophenoxy)phenylmethylsemicarbazide]
- MES (ED50 mg/kg) [5, 7]: 4.2 mg/kg

Compound: NC(=O)NN=Cc1ccc(-c2ccc(F)cc2)c(F)c1 [3-fluoro-4-(4-fluorophenyl)benzaldehyde semicarbazone]
- ED50 [5, 6]: 3 mg/kg

Compound: NC(=O)NN=Cc1ccc(Oc2ccc3c(c2)CCC3)cc1 [4-(5-indanoxy)benzaldehyde semicarbazone, 4-(5-Indanoxy)benzaldehyde semicarbazone]
- ED50 [5, 6]: 1.7 mg/kg

Compound: NC(=O)NN=Cc1ccc(OC2CCCCCC2)cc1 [4-cycloheptoxybenzaldehyde semicabazone, 4-Cycloheptyloxybenzaldehyde semicarbazone]
- ED50 [5, 6]: 3.2 mg/kg

Compound: CCCCOc1ccc(Oc2ccc(C=NNC(N)=O)cc2)cc1 [4-(4-butoxyphenoxy)benzaldehyde semicarbazone]
- ED50 [5, 6]: 14.9 mg/kg

Compound: 4-(4-fluorophenyl)benzaldehyde 2'-methylsemicarbazone
- MES (ED50 mg/kg) [5, 7]: 1.5 mg/kg

Compound: CCN(CC)CC(=O)Nc1c(C)cccc1C [Lidocaine, reference compound]
- IC50 [2]: > 100 µM
- IC50 [3]: 29.9 µM
